Test [1] relates to Chromobacterium violaceum CV026. Put plainly: Violacein inhibition assay (quantitative), tube assay. In kind it is cell-based. How it is done:
This assay is based on a similar principle to the one described above, that is the presence of any quorum sensing inhibitor will quantitatively decrease the production of the purple pigment violacein which can then be estimated colorimetrically. This is a tube assay in which 100 μl of overnight culture of CV026 was inoculated in 10 ml LB broth containing the QS signal molecule (namely C6-HSL, C8-HSL or 3-oxo-C6-HSL) at appropriate concentrations. The test compound, Pichia sp. synthesized xylitol in the present invention, was then added at increasing concentrations in a series of test tubes. The violacein produced was extracted from the culture broth by dissolution of the pigment in DMSO and separating it from the cell mass by centrifugation. The amount of xylitol required to inhibit or substantially decrease the purple pigment production could be quantitatively estimated by measuring the optical density at 570 nm. Appropriate positive and negative controls were used. All experiments were done in triplicates for checking reproducibility.

Test [2] has as its system Chromobacterium violaceum mutant CV026. Put plainly: Violacein inhibition assay (qualitative), agar well. In kind it is cell-based. Conditions: QS signal molecule 12.5 μM, 30° C., 24 hours, FIG. 5. How it is done: This assay has been designed in such a way that a zone inhibition of Violacein synthesis can be seen around the agar well containing the probable QS Inhibitor. Chromobacterium violaceum mutant CV026 is used as the test organism which has the ability to respond to a variety of signal molecules. The QS signal molecule (12.5 μM) is added to 10 ml of Luria bertani soft agar containing 100 μl of overnight culture of CV026. The soft agar is then overlayed onto basal LA plate, and a 4 mm diameter well is dug in the centre of the plate using a sterile cork borer after the overlay is set. To the agar well 75 μl of appropriate concentration of the compound under investigation was added, and the plates were incubated at 30° C. for 24 hours. The diameter of zone of Violacein inhibition was then measured. Pure xylitol from sigma was used for comparative analysis.

Setting [3] is: increasing concentration of xylitol, CV026.

The text below walks through data of patent publication US20150159180A1, “PROCESS FOR PRODUCTION OF C[…] USING PICHIA CARIBBICA AND ITS APPLICATION FOR QUORUM SENSING INHIBITION” (COUNCIL OF SCIENTIFIC & INDUSTRIAL RESEARCH, priority 2012, published 2015).

With `OC[C@@H](O)[C@H](O)[C@@H](O)CO` [Pichia xylitol, xylitol], the “antagonism of AHL signal and receptor interaction” value in test [1] (CV026 based AHL antagonism assay, C6-HSL, C8-HSL and 3-oxo-C6-HSL) is “able to antagonize not one but three different AHL signal and receptor interaction”. In addition, in test [1] (setting [3]), the “inhibitory effect on the organism” value is “not inhibitory to the organism” and the “quorum sensing signal reception” value is “severely impaired quorum sensing signal reception”. Also, the “inhibition of Violacein production” value in test [1] (increasing concentrations of xylitol, optical density at 570 nm, FIG. 6) was “could quantitatively inhibit Violacein production”. Besides, the “zone of inhibition of Violacein synthesis” value in test [2] is “zone of inhibition of Violacein synthesis around the agar well”.
